Experimental data taken from patent US20130029942A1, “COMPOUNDS AND THERAPEUTICAL USES THEREOF” (Myrexis, Inc., priority 2003, published 2013).
pEC50, pIC50: −log10 of the molar value.

tested on: T-47D cells; assay: Caspase cascade activation / induction of apoptosis in T-47D cells (fluorogenic N-(Ac-DEVD)-N'-ethoxycarbonyl-R110 substrate); assay type: cell-based, human; conditions: Homo sapiens, T47D; T-47D, 24 hr; read-out: T-47D (24 hr) EC50

| Structure (SMILES) | pEC50 |
| --- | --- |
| COc1ccc(N(C)c2nc(N=[N+]=[N-])nc3ccccc23)cc1 [Example 121, (2-Azido-quinazolin-4-yl)-(4-methoxy-phenyl)-methyl-amine] | 7.52 |
| COc1ccc(N(C)c2nc(C)nc3ccccc23)c(F)c1 [Example 99, (2-Fluoro-4-methoxy-phenyl)-(2-methyl-quinazolin-4-yl)-methyl-amine] | 8.40 |
| CCc1ccc(N(C)c2nc(C)nc3ccccc23)cc1 [Example 87, (4-Ethyl-phenyl)-(2-methyl-quinazolin-4-yl)-methyl-amine] | 7.60 |
| COc1ccc(N(C)c2nc(SC)nc3ccccc23)cc1 [Example 120, (2-Methylthio-quinazolin-4-yl)-(4-methoxy-phenyl)-methyl-amine] | 8.10 |
| COc1cc(OC)c(Nc2nc(C)nc3ccccc23)c(OC)c1 [Example 82, (2-Methyl-quinazolin-4-yl)-(2,4,6-trimethoxy-phenyl)-amine] | < 5.00 |

same assay, conditions: Homo sapiens, T47D; T-47D, 48 hr; read-out: T-47D (48 hr) EC50

| Structure (SMILES) | pEC50 |
| --- | --- |
| COc1ccc(Nc2nc(Cl)nc3ccccc23)c(OC)c1 [Example 30, (2-Chloro-quinazolin-4-yl)-(2,4-dimethoxy-phenyl)-amine] | < 5.00 |
| COc1ccc(N(C)c2nc(NCCO)nc3cc(OC)c(OC)cc23)cc1 [Example 50, N^2-(2-Hydroxyethyl)-N^4-(4-methoxy-phenyl)-N^4-methyl-6,7-dimethoxyquinazoline-2,4-diamine] | < 5.00 |

tested on: P388 murine leukemia cell line; assay: P388 cytotoxicity (ATP-Lite, 72 hours); assay type: cell-based; conditions: Mus musculus, P388, 72 hours
Method: A P388 murine leukemia cell line was obtained from NCI, Frederick, Md. P388 cells were cultured in RPMI-1640 supplemented with 10% fetal bovine serum, 2 mM Glutamax, 1 mM sodium pyruvate, 0.1 mM non-essential amino acids and 10 mM HEPES. Cells were grown at 37° C. in a humidified 5% CO2 atmosphere. Exponentially growing P388 cells were plated at 5,000 cells/well in a 96-well flat-bottomed microtiter plate (Corning, Costar #3595). […] Cellular viability was determined 72 hours later by measuring intracellular ATP with ATP-Lite assay system. The effect of compounds on cell viability was calculated by comparing the ATP levels of cells exposed to test compound with those of cells exposed to DMSO. […] Data was analyzed by Prism software (GraphPad; San Diego, Calif.) by fitting it to a sigmoidal dose response curve.

| Structure (SMILES) | pIC50 |
| --- | --- |
| COc1ccc(N(C)c2nc(N(C)CCCN(C)C)nc3ccccc23)cc1 [Example 183, N^2-(3-Dimethylamino-propyl)-N^4-(4-methoxy-phenyl)-N^2,N^4-dimethyl-quinazoline-2,4-diamine] | 6.31 |
| CN(c1ccc(O)cc1)c1nc(CN)nc2ccccc12 [Example 230, 4-[(2-Aminomethyl-quinazolin-4-yl)-methyl-amino]-phenol] | 5.77 |
| COc1ccc(N(C)c2nc(CN)nc3ccccc23)cc1F [Example 234, (2-Aminomethyl-quinazolin-4-yl)-(3-fluoro-4-methoxy-phenyl)-methyl-amine] | 7.96 |
| CCOc1ccc(N(C)c2nc(CN)nc3ccccc23)cc1F [Example 235, (2-Aminomethyl-quinazolin-4-yl)-(4-ethoxy-3-fluoro-phenyl)-methyl-amine] | 8.30 |
| COc1ccc(N(C)c2nc(NCCO)nc3ccc(N)cc23)cc1 [Example 189, 2-{6-Amino-4-[(4-methoxy-phenyl)-methyl-amino]-quinazolin-2-ylamino}-ethanol] | 6.34 |
| CNc1nc(N(C)c2ccc(OC)c(OC)c2)c2ccccc2n1 [Example 167, N^4-(3,4-Dimethoxy-phenyl)-N^2,N^4-dimethyl-quinazoline-2,4-diamine] | 7.82 |
| COc1ccc(N(C)c2nc(C)nc3ccsc23)cc1 [Example 185, (4-Methoxy-phenyl)-methyl-(2-methyl-thieno[3,2-d]pyrimidin-4-yl)-amine] | 8.15 |
| COc1ccc(N(C)c2nc(CN)nc3cccc(F)c23)cc1 [Example 229, (2-Aminomethyl-5-fluoro-quinazolin-4-yl)-(4-methoxy-phenyl)-methyl-amine] | 8.30 |
| COC(=O)CN(C)c1nc(N(C)c2ccc(OC)cc2)c2ccccc2n1 [Example 187, ({4-[(4-Methoxy-phenyl)-methyl-amino]-quinazolin-2-yl}-methyl-amino)-acetic acid methyl ester] | 6.96 |
| CCOc1ccc(N(C)c2nc(CN3C(=O)c4ccccc4C3=O)nc3ccccc23)cc1Cl [Example 260, 2-{4-[(3-Chloro-4-ethoxy-phenyl)-methyl-amino]-quinazolin-2-ylmethyl}-isoindole-1,3-dione] | 6.33 |
| COc1ccc(N(C)c2nc(OC(C)C)nc3ccccc23)cc1 [Example 156, (2-Isopropoxy-quinazolin-4-yl)-(4-methoxy-phenyl)-methyl-amine] | 8.22 |
| COc1ccccc1CN(C)c1nc(Cl)nc2ccccc12 [Example 177, (2-Chloro-quinazolin-4-yl)-(2-methoxy-benzyl)-methyl-amine] | 6.01 |
| COc1ccc(N(C)c2nc(C)nc3ccc(CN)cc23)cc1 [Example 259, (6-Aminomethyl-2-methyl-quinazolin-4-yl)-(4-methoxy-phenyl)-methyl-amine] | 6.11 |
| Cc1nc(N(C)c2ccc(OC(C)C)cc2)c2cc(N)ccc2n1 [Example 226, N^4-(4-Isopropoxy-phenyl)-2,N^4-dimethyl-quinazoline-4,6-diamine] | 7.70 |
| COc1ccc(N(C)c2nc(NCCCCN)nc3ccccc23)cc1 [Example 184, N^2-(4-Amino-butyl)-N^4-(4-methoxy-phenyl)-N^4-methyl-quinazoline-2,4-diamine] | 6.30 |
| COc1ccc(N(C)c2nc(CNCCCO)nc3ccccc23)cc1 [Example 256, 3-({4-[(4-Methoxy-phenyl)-methyl-amino]-quinazolin-2-ylmethyl}-amino)-propan-1-ol] | 5.74 |
| CONc1nc(N(C)c2ccc(OC)cc2)c2ccccc2n1 [Example 172, N-{4-[(4-Methoxy-phenyl)-methyl-amino]-quinazolin-2-yl}-O-methyl-hydroxylamine] | 8.70 |
| COc1ccc(N(C)c2nc(C)nc3ccc(NS(=O)(=O)c4ccc(OC)cc4)cc23)cc1 [Example 236, 4-Methoxy-N-{4-[(4-methoxy-phenyl)-methyl-amino]-2-methyl-quinazolin-6-yl}-benzenesulfonamide] | 6.17 |

| Structure (SMILES) | pIC50 |
| --- | --- |
| COc1ccc(N(C)c2nc(C)nc3c2CCCC3)cc1 [Example 188, (4-Methoxy-phenyl)-methyl-(2-methyl-5,6,7,8-tetrahydro-quinazolin-4-yl)-amine] | 8.70 |
| COc1ccc(N(C)c2nc(C)nc3ccc(C#N)cc23)cc1 [Example 249, 4-[(4-Methoxy-phenyl)-methyl-amino]-2-methyl-quinazoline-6-carbonitrile] | 7.70 |
| COc1ccc(N(C)c2nc(C)nc3ccc(N)cc23)cc1OC [Example 223, N^4-(3,4-Dimethoxy-phenyl)-2,N^4-dimethyl-quinazoline-4,6-diamine] | 7.19 |
| COc1ccc(N(C)c2nc(C)nc3ccc(Br)cc23)cc1 [Example 245, (6-Bromo-2-methyl-quinazolin-4-yl)-(4-methoxy-phenyl)-methyl-amine] | 8.70 |
| COc1ccc(N(C)c2nc(CN)nc3ccc(-c4ccccc4)cc23)cc1 [Example 243, (2-Aminomethyl-6-phenyl-quinazolin-4-yl)-(4-methoxy-phenyl)-methyl-amine] | 5.38 |
| CCOc1ccc(N(C)c2nc(CCl)nc3ccccc23)cc1Cl [Example 258, (3-Chloro-4-ethoxy-phenyl)-(2-chloromethyl-quinazolin-4-yl)-methyl-amine] | 7.82 |
| Cc1nc(N(C)c2ccc(N(C)C(=O)OC(C)(C)C)cc2)c2ccccc2n1 [Example 204, Methyl-{4-[methyl-(2-methyl-quinazolin-4-yl)-amino]-phenyl}-carbamic acid tert-butyl ester] | 6.34 |
| COc1ccc(N(C)c2nc(CNC(=O)[C@@H](C)N)nc3ccccc23)cc1 [Example 248, (R)-2-Amino-N-{4-[(4-methoxy-phenyl)-methyl-amino]-quinazolin-2-ylmethyl}-propionamide] | 6.65 |
| COc1ccc(N(C)c2nc(N(C)CCCN)nc3ccccc23)cc1 [Example 227, N^2-(3-Amino-propyl)-N^4-(4-methoxy-phenyl)-N^2,N^4-dimethyl-quinazoline-2,4-diamine] | 7.57 |
| COc1ccc(N(C)c2nc(CCl)nc3ccc(Br)cc23)cc1 [Example 208, (6-Bromo-2-chloromethyl-quinazolin-4-yl)-(4-methoxy-phenyl)-methyl-amine] | 7.57 |
| CCOc1c(Cl)cc(N(C)c2nc(CCl)nc3ccccc23)cc1Cl [Example 257, (2-Chloromethyl-quinazolin-4-yl)-(3,5-dichloro-4-ethoxy-phenyl)-methyl-amine] | 5.62 |
| Cc1nc(N(C)c2ccc(OC(C)C)cc2)c2cc([N+](=O)[O-])ccc2n1 [Example 224, (4-Isopropoxy-phenyl)-methyl-(2-methyl-6-nitro-quinazolin-4-yl)-amine] | 6.77 |
| COc1ccc(N(C)c2nc(CN)nc3ccc(F)cc23)cc1 [Example 205, (2-Aminomethyl-6-fluoro-quinazolin-4-yl)-(4-methoxy-phenyl)-methyl-amine] | 7.72 |
| COc1ccc(N(C)c2nc(N(C)CCO)nc3ccccc23)cc1 [Example 174, 2-({4-[(4-Methoxy-phenyl)-methyl-amino]-quinazolin-2-yl}-methyl-amino)-ethanol] | 7.66 |
| COc1ccc(N(C)c2nncc3cc(F)ccc23)cc1 [Example 196, (6-Fluoro-phthalazin-1-yl)-(4-methoxy-phenyl)-methyl-amine] | 6.48 |
| COc1ccc(N(C)c2nc(CN)nc3ccc(-c4ccc(Cl)cc4)cc23)cc1 [Example 241, [2-Aminomethyl-6-(4-chloro-phenyl)-quinazolin-4-yl]-(4-methoxy-phenyl)-methyl-amine] | 5.84 |
| CCOc1nc(N(C)c2ccc(OC)cc2)c2ccccc2n1 [Example 182, (2-Ethoxy-quinazolin-4-yl)-(4-methoxy-phenyl)-methyl-amine] | 5.64 |
| Cc1nc(N(C)c2ccc(OCC(=O)O)cc2)c2ccccc2n1 [Example 144, {4-[Methyl-(2-methyl-quinazolin-4-yl)-amino]phenoxy}-acetic acid] | 5.77 |
